From PMC4859512, “Polyamino-Isoprenic Derivatives Block Intrinsic Resistance of P. aeruginosa to Doxycycline and Chloramphenicol In Vitro” (PLoS ONE, 2016) come the findings set out here.

One data set concerns human fibroblasts. Briefly: WST-1 cytotoxicity test, fibroblasts. It counts as cell-based. The conditions noted are these: for IC50: Homo sapiens, Fibroblast, WST1, 24 h, mean +/- SD, 2 independent experiments. As for the experimental part:
(§1) CHO-K1 cells (ATCC-LGC Standards Sarl (Molsheim, France) and human fibroblasts (Clinisciences, Paris, France) were maintained in McCoy’s 5A and DMEM media, respectively, supplemented with 10% bovine calf serum, 2 mM glutamine, and 100 U/mL/10 μg/mL penicillin/streptomycin. They were incubated at 37°C in a humidified atmosphere containing 5% CO2. The cell lines were seeded in 96-well plates and incubated overnight. The cytotoxic effects of compounds were assessed by the colorimetric WST-1 cell proliferation assay as previously described. Briefly, a range of compound concentrations from 30 μM to 1200 μM was added to triplicate cultures, and cells were incubated at 37°C for 24 h. At the end of the incubation period, cultures were washed three times with phosphate buffer saline (PBS) and incubated in fresh culture medium containing 10% WST-1 for an additional 30 min. Cell viability was evaluated by measuring the WST-1 absorbance at 450 nm in a microplate spectrophotometer MRX1 II (Dynex technologies, Chantilly, VA, USA). The Inhibitory Concentration 50% (IC50) was chosen to evaluate the cytotoxicity of compounds. IC50 was defined as the concentration of a compound that induced a 50% decrease in viable cells. Doxorubicin was used as a positive control.
(In general: Tetrazolium assays rely on reduction of a dye to a coloured formazan, in cell work by metabolically active cells.)

Data set [1] relates to twenty clinical isolates of P. aeruginosa. The data set is described as follows: Combined antibiotic / polyamino-isoprenic derivative on MH agar plates, clinical isolates. It counts as cell-based, Pseudomonas aeruginosa. The conditions noted are these: doxycycline 2 mg/L + compound 10 μM; 20 clinical isolates. Here is the method: MH agar plates were prepared, containing 2 mg/L doxycycline and 2 mg/L doxycycline in combination with compounds at a concentration of 10 μM. Bacteria, 5 μL of a suspension of each clinical isolate adjusted to 5 x 10^5 colony-forming units per ml were spotted on each plate and growth was monitored after a 18 h period of incubation at 37°C.
PA01 is a well-studied reference strain of P. aeruginosa, however to extend our study we considered strains recently isolated from hospitalized patients. Thus, we decided to test this combination of doxycycline (2mg/L) with polyamino-isoprenic compounds (10 μM) on twenty clinical isolates recently isolated from the HIA-Laveran (see M&M section and S1 Table).

Data set [2] relates to P. aeruginosa FB1 (Mex B deleted). Briefly: Antibiotic susceptibility testing (broth micro-dilution MIC), strain FB1. It is filed as cell-based. The conditions noted are these: Pseudomonas aeruginosa, read-out: Minimal Inhibitory Concentration. As for the experimental part:
(§2) Experiments were performed on the BAC-SCREEN platform of the UMR-MD1, with a Freedom EVO 150 liquid handling system (Tecan, Lyon, France).
For orientation: In broth dilution the organism is exposed to a series of concentrations in liquid medium.

For the next data set, the system named is P. aeruginosa PA01 (wt). The data set is described as follows: Antibiotic susceptibility testing (broth micro-dilution MIC), strain PA01. It counts as cell-based, Pseudomonas aeruginosa. To be noted: Pseudomonas aeruginosa, read-out: Minimal Inhibitory Concentration. Here is the method: as §2
(§3) The same experiment was performed using chloramphenicol (4 mg/L) in combination with 3 (10 μM final concentration). […] These experiments were performed to study the effect of our compounds on the natural resistance of P. aeruginosa. […] Experiments were performed with the ß-lactams ceftazidime and ticarcillin and ciprofloxacin and amikacin.

Another data set has as its system CHO-K1 cells. Briefly: cells. It counts as cell-based, Chinese Hamster. The conditions noted are these: for IC50: Cricetulus griseus, CHO-K1, WST1, 24 h, mean +/- SD, 2 independent experiments. Here is the method:
as §1

In data set [3] the test system is P. aeruginosa CMZ091 (Mex XY overproducer). The data set is described as follows: Antibiotic susceptibility testing (broth micro-dilution MIC), strain CMZ091. It is filed as cell-based, Pseudomonas aeruginosa. The conditions noted are these: Pseudomonas aeruginosa, read-out: Minimal Inhibitory Concentration. As for the experimental part: as §2
(§4) We concluded that compound 3 was the best compound and suitable for a more detailed study. The same experiment was performed using chloramphenicol (4 mg/L) in combination with 3 (10 μM final concentration). Amongst the 20 clinical isolates, the growth of 15 (75%) was impaired, while 5 (25%) were resistant (data not shown). These experiments were performed to study the effect of our compounds on the natural resistance of P. aeruginosa. In addition, we were wondering if compound 3 could also increase susceptibility to other antibiotic families including ß-Lactams, fluoroquinolones and aminoglycosides, that are representative of the main classes of anti-pseudomonal agents. Experiments were performed with the ß-lactams ceftazidime and ticarcillin and ciprofloxacin and amikacin. […] . […] To better characterize compound 3, we first searched for the minimum concentration of compound that allowed killing of bacteria by doxycycline, and PAßN was used as the reference molecule.

For data set [4], the system named is P. aeruginosa PA01 ERY^R (Mex CD overproducer). The data set is described as follows: microbe, parasite or virus in culture. It counts as cell-based, Pseudomonas aeruginosa. The conditions noted are these: Pseudomonas aeruginosa, read-out: Minimal Inhibitory Concentration. As for the experimental part: as §2, §3
The test system of data set [5] is P. aeruginosa PA0-7H (Mex EF overproducer). The data set is described as follows: Antibiotic susceptibility testing (broth micro-dilution MIC), strain PA0-7H. It is filed as cell-based, Pseudomonas aeruginosa. The conditions noted are these: Pseudomonas aeruginosa, read-out: Minimal Inhibitory Concentration. As for the experimental part: as §2, §4
Data set [6] deals with P. aeruginosa PT629 (Mex AB overproducer). The data set is described as follows: Antibiotic susceptibility testing (broth micro-dilution MIC), strain PT629. It is filed as cell-based, Pseudomonas aeruginosa. To be noted: Pseudomonas aeruginosa, read-out: Minimal Inhibitory Concentration. As for the experimental part:
as §2, §4

In another data set the test system is Enterobacteriaceae. Briefly: Same type of combination assay against Enterobacteriaceae (data not shown). It is filed as cell-based.
In data set [7] the test system is outer membrane of P. aeruginosa PA01. Briefly: Outer membrane permeation assay (nitrocefin hydrolysis). To be noted: compound at 125μM, relative to 250 μM polymyxin-B.
Description: An overnight culture of PA01 was diluted 100-fold into 10 ml MHII broth containing 0.01 μg/ml of imipenem to induce a higher level of β-lactamases. […] Absorbance at 490 nm was monitored by spectrophotometry using an Infinite M200 microplate reader (Tecan) over 60 min. Experiments were performed in triplicate.
For data set [8], the system named is efflux of 1,2'-dinaphthylamine in strain PA01. The data set is described as follows: Real-time efflux assay (1,2'-dinaphthylamine, glucose-triggered). It is filed as cell-based, Pseudomonas aeruginosa. As for the experimental part:
The experiments were performed as previously described with slight modifications. For each strain, 20 mL of MHII was inoculated with a single colony from a fresh plate and grown at 37°C to the stationary phase. […] They were then loaded over night with the dye 1,2’-dinaphthylamine (TCI-Europe SA, Zwijndrecht, Belgium) at a final concentration of 32 μM, in the presence of 5 μM CCCP. […] In a 96-well Greiner black microplate (Greiner, Courtaboeuf, France), a gradient of inhibitor (when used) was prepared in PPB, and bacteria were added (100 μL per well). The fluorescence of the cell suspension, was monitored each 22 sec during 1200 sec on an Infinite M200 microplate reader (Tecan; excitation wavelength 370 nm and emission wavelength 420 nm). In order to trigger the transport, glucose (50 mM final concentration) is added at 200 sec. The maximum efficacy of the efflux is the difference between the value obtained without and with glucose addition after 1200 sec. For each compound, the efficiency of efflux inhibition is calculated as the difference between the maximum efficacy of transport and the residual transport obtained at various concentrations of the compound.

Data set [9] has as its system P. aeruginosa PA01 reference strain. The data set is described as follows: High-content screening in the presence of doxycycline. To be noted: compound 10 μM, sub-inhibitory doxycycline.
Description: The screening was carried out in 96-well microtiter plates using MHBII, in a final volume of 200 μL. […] The bacterial inoculum of 5×10^5 CFU/mL was prepared from an overnight culture. In addition to the polyamino-isoprenic compounds, each plate contained PAßN, CCCP, CTAB, polymyxin-B and benzalkonium chloride as control molecules. Plates were incubated at 37°C under aerobic conditions for 18 hours. Plates were read at 600 nm on an Infinite M200 Pro plate reader (Tecan).
A series of 60 compounds, which were described [18], were tested at a concentration of 10 μM in combination with a sub-inhibitory concentration of doxycycline against the reference strain of P. aeruginosa PA01. In parallel, we evaluated the intrinsic antimicrobial activity of these compounds alone to allow the selection of only doxycycline adjuvants.

Where “and” joins values, the source holds several entries; their conditions need not be identical. Equal values may be shown once.

Consider `CC(C)=CCCC(C)=CCCC(C)=CCNCCCN(CCCN)CCCN` [Compound 4], for which the IC50 in the data set on human fibroblasts came to 136 ± 7.9 µM; in the data set with CHO-K1 cells it was 363 ± 20.3 µM. Further, in data set [1], the “isolates with doxycycline susceptibility restored” value (shortened to “isolates”) came out at 88%. Also, the MIC in [2] was 49 µg/mL and 125 µM; in the data set with P. aeruginosa PA01 (wt) it was 49 µg/mL and 125 µM; in [3], 49 µg/mL and 125 µM; in data set [4], 25 µg/mL and 62.5 µM; in data set [5], 49 µg/mL and 125 µM; in data set [6] it was 49 µg/mL and 125 µM.

`CC(C)=CCCC(C)=CCNCCCN(CCCN)CCCN` [Compound 2]: in data set [1], the “isolates” value is 6%. In addition, the MIC in data set [2] was > 81 µg/mL and > 250 µM; in the data set on P. aeruginosa PA01 (wt) it was > 81 µg/mL and > 250 µM; in data set [3], > 81 µg/mL and > 250 µM; in data set [4], > 81 µg/mL and > 250 µM; in data set [5], > 81 µg/mL and > 250 µM; in data set [6], > 81 µg/mL and > 250 µM. The compound also registered a half-maximal inhibitory concentration (IC50) with CHO-K1 cells of 236 ± 28.9 µM. In addition, the “rank of potency against Enterobacteriaceae” value in the data set with Enterobacteriaceae was “the most potent”.

As for “polymyxin-B nonapeptide [PMBN, reference compound]”, in [7], the “outer membrane permeation activity” value amounted to 10%. Besides, the results for the efflux inhibition entry in data set [8] (compound at 31.25μM) and in data set [8] (compound at 125μM) were “quite inefficient” and 30%, respectively.

Take `CC(C)=CCCC(C)=CCNCCCNCCCCNCCCN` [Compound 1]: the IC50 in the data set with human fibroblasts was 138 ± 18.6 µM; in the data set with CHO-K1 cells, 808 ± 68.1 µM. Besides, the “cytotoxicity value compared with the positive control doxorubicin” value in the data set on human fibroblasts (human fibroblasts) came out at 10 times; in the data set on CHO-K1 cells (Chinese hamster, 24 h), 20 times. The “isolates” value in data set [1] was determined as 27%. The MIC in data set [2] is 85 µg/mL and 250 µM; in the data set with P. aeruginosa PA01 (wt), > 85 µg/mL and > 250 µM; in data set [3], 85 µg/mL and 250 µM; in data set [4], > 85 µg/mL and > 250 µM; in [5], 85 µg/mL and 250 µM; in data set [6] it was > 85 µg/mL and > 250 µM. Besides, the “synergy with doxycycline in screening” value in data set [9] is “did not show any significant synergy”.

By IC50 is commonly meant the midpoint of a concentration-inhibition curve. Higher therefore signals weaker potency.
